Data on five compounds can be found in paper PMC5537056 (Leukemia, 2016).

Common to all, as to format: cell-based
For one data set, the system named is MM1.S. Description: Viability assay by flow cytometry. (In general: In flow cytometry, cells or beads pass a laser one at a time.)
Data set [1] has as its system MM cell lines (RPMI8226, U266, MM1.S, KMS11). Description: Proliferation assays, range over the four MM cell lines. To be noted: read-out: GI50, range over MM cell lines.
Another data set relates to RPMI8226. Briefly: Viability assay by flow cytometry. To be noted: read-out: LC50 (Viability); RPMI8226, 48 hrs.
A further data set deals with KMS11. Briefly: Viability assay by flow cytometry. To be noted: read-out: LC50 (Viability); KMS11, 48 hrs.
Data set [2] deals with MM cell lines (RPMI8226, U266, MM1.S, KMS11). Description: Viability assays, range over the four MM cell lines. The note with it: read-out: LC50, range over MM cell lines.
The subject of the next data set is U266. Briefly: Viability assay by flow cytometry.
The test system of the next data set is PIM2 expression in U266. Description: Western blot of PIM2 protein expression. The note with it: U266, IL-6 25 ng/ml. In general terms: Immunoblotting shows a protein as a band on a membrane.
The next data set concerns PIM2 expression in MM1.S. Description: Western blot of PIM2 protein expression. The note with it: IL-6 25 ng/ml.
[3] abbreviates: Homo sapiens, MM1.S, 48 h, read-out: cell viability.

On to `N[C@@H]1CCCN(c2c(/C=C3\SC(=O)NC3=O)cccc2-c2ccccc2)C1` [AZD1208], for which the CC50 with MM1.S (read-out: LC50 (Viability), MM1S, 48 hrs) was 23.7 µM; in the data set with RPMI8226 it was 30 µM; in the data set on KMS11, 31.3 µM; in data set [2], 23 to 56 µM; with U266 (read-out: LC50 (Viability), U266, 48 hrs), 56.6 µM. For the same compound, the GI50 – broadly, the concentration giving 50% growth inhibition – in data set [1] was in the range of 700 to 4700 nM.
Regarding `CC(C)C[C@H](NC(=O)[C@H](Cc1ccccc1)NC(=O)c1cnccn1)B(O)O` [bortezomib], the viability (as a rule, a per cent measure of how many cells are alive, often set against a control) at 0.0015 µM in the data set with MM1.S (setting [3]) is 18%.
With `C[C@@H]1C[C@H]2[C@@H]3CCC4=CC(=O)C=C[C@]4(C)[C@@]3(F)[C@@H](O)C[C@]2(C)[C@@]1(O)C(=O)CO` [dexamethasone], the viability at 5 µM in the data set on MM1.S (setting [3]) amounted to 55%.
For `N[C@@H](Cc1ccc(N(CCCl)CCCl)cc1)C(=O)O` [melphalan], the viability at 2 µM in the data set with MM1.S (setting [3]) was determined as 36%. Further, in the data set with U266 (Homo sapiens, U-266, read-out: cell viability), the viability at 4 µM is 58%.
Consider “rIL-6: Recombinant IL-6 purchased from R&D Systems”, for which the “upregulation of PIM2” value in the data set on PIM2 expression in U266 is 1.3 fold; in the data set with PIM2 expression in MM1.S it was 3.2 fold.
